Measurements published in patent publication US20250241870A1, “OXYRESVERATROL AND DERIVATIVES THEREOF FOR USE IN LIPOLYSIS” (Caliway Biopharmaceuticals Co., Ltd., priority 2024, published 2025).
Where two headings read alike, the source gives them in different places.

Assays:
[1] = MTT assay, cell viability rate of 3T3-L1 mature adipocytes; type: cell-based; conditions: mouse
Protocol: (§1) 3T3-L1 cell subculture medium (preadipocytes): DMEM+10% BCS+1% P/S.
(§2) 3T3-L1 cell induction differentiation medium (mature adipocytes): DMI Medium: DMEM+10% FBS+1% P/S+0.5 μM IBMX+0.1 μM dexamethasone+5 μg/mL insulin; and INS Medium: DMEM+10% FBS+1% P/S+5 μg/mL insulin. IBMX stock solution was prepared as follows: 500 mM solution in DMSO diluted and used to prepare the differentiation medium. Dexamethasone stock solution was preprepared as follows: 10 mM solution in EtOH diluted and used to prepare the differentiation medium. Insulin stock solution was prepared as follows: 10 mg/mL solution in double distilled water (ddw) diluted and used to prepare the differentiation medium.
(§3) Steps to induce differentiation: The adipocyte precursors 3T3-L1 cells (purchased from the Food Industry Research and Development Institute, Taiwan; abbreviated as BCRC) were seeded in 12-well plates, such that each well contained 1×10^5 cells.
(§4) MTT assay: After 3T3-L1 cells were induced to differentiate into mature adipocytes for 8 days, Resveratrol or Oxyresveratrol was added for treatment for 24 hours, then the culture medium was replaced with MTT reagent (working concentration: 0.5 mg/mL), and cultured in a 37° C. incubator for 2 hours. After removing the supernatant, DMSO was added to dissolve the purple crystals, and an ELISA reader was used to measure the OD 570 nm absorbance value and OD 630 nm background absorbance value. The background value OD 630 nm was subtracted from the measured value OD 570 nm in each group to obtain the final absorbance value.
(§5) Calculation formula (cell viability rate): After measuring the absorbance value at 570 nm and subtracting the background absorbance at 630 nm, the final absorbance value was multiplied by the […] and divided by the average absorbance value of the Control group for calculation.
(§6) 3T3-L1 preadipocytes and mature adipocytes were cultured using the same cell subculture medium disclosed in Example 1 above. Adipocytes differentiation, MTT assay, and determination cell viability was conducted following the methods disclosed herein. See, e.g. Example 1 above.

3T3-L1 mature adipocytes = experiment: as above; type: cell-based; conditions: 24 hours; for Cell viability compared with DMSO Vehicle group / Effect on adipocytes compared with resveratrol at the same concentration: p<0.001; for Cell viability rate compared with 0.2% DMSO Vehicle group: 20 ppm, 40 ppm and 60 ppm, p<0.001, dose effect; for Effect on adipocytes compared with resveratrol at the same concentration: 40 ppm
Protocol: as §1, §2, §3, §4, §5, §6

[2] = Cell viability rate, Replicate 1
[3] = Cell viability rate, Replicate 2
[4] = Cell viability rate, Replicate 3
[5] = Cell viability rate, Replicate 4

Row | SMILES | Cell viability compared with DMSO Vehicle group (3T3-L1 mature adipocytes; 50 ppm) | viability at 24 h, 50 ppm ([1]; Cell viability rate, Mean) | viability at 24 h, 50 ppm [1, 2] | viability at 24 h, 50 ppm [1, 3] | viability at 24 h, 50 ppm [1, 4] | viability at 24 h, 50 ppm [1, 5] | Cell viability rate compared with 0.2% DMSO Vehicle group (3T3-L1 mature adipocytes) | other results
1 | COc1ccc(/C=C/c2cc(O)cc(O)c2)cc1O [IM05, 5-[(E)-2-(3-hydroxy-4-methoxyphenyl)ethenyl]benzene-1,3-diol] | significantly decreased |  |  |  |  |  |  | viability at 24 h, 50 ppm ([1]; 3T3-L1 mature adipocytes (differentiated from preadipocytes), 3T3-L1 mature adipocytes, drug 50 ppm, 0.2% DMSO, 24 hours, mean of 4 replicates, read-out: Cell viability rate, Mean): 72.4%; viability at 24 h, 50 ppm ([1]; 3T3-L1 mature adipocytes (differentiated from preadipocytes), 3T3-L1 mature adipocytes, drug 50 ppm, 0.2% DMSO, 24 hours, read-out: Cell viability rate, Replicate 1): 66.5%; viability at 24 h, 50 ppm ([1]; 3T3-L1 mature adipocytes (differentiated from preadipocytes), 3T3-L1 mature adipocytes, drug 50 ppm, 0.2% DMSO, 24 hours, read-out: Cell viability rate, Replicate 2): 71.2%; viability at 24 h, 50 ppm ([1]; 3T3-L1 mature adipocytes (differentiated from preadipocytes), 3T3-L1 mature adipocytes, drug 50 ppm, 0.2% DMSO, 24 hours, read-out: Cell viability rate, Replicate 3): 73.5%; viability at 24 h, 50 ppm ([1]; 3T3-L1 mature adipocytes (differentiated from preadipocytes), 3T3-L1 mature adipocytes, drug 50 ppm, 0.2% DMSO, 24 hours, read-out: Cell viability rate, Replicate 4): 78.4%
2 | Oc1cc(O)cc(/C=C/c2ccc(O)cc2O)c1 [Oxyresveratrol, 4-[(E)-2-(3,5-dihydroxyphenyl)ethenyl]benzene-1,3-diol] | significantly decreased | 39.6% | 43.2% | 38% | 37% | 40% | significantly lower than 0.2% DMSO Vehicle group | viability at 24 h, 20 ppm ([1]; Average viability (%)): 76.8 ± 3.27%; viability at 24 h, 40 ppm ([1]; Average viability (%)): 28.65 ± 0.26%; viability at 24 h, 60 ppm ([1]; Average viability (%)): 12.5 ± 1.09%; Effect on adipocytes compared with resveratrol at the same concentration (3T3-L1 mature adipocytes; listed as OxyR): more effective in reducing adipocytes than Res; Effect on adipocytes compared with resveratrol at the same concentration (3T3-L1 mature adipocytes; listed as oxyresveratrol): better inhibitory effects against adipocytes as compared with resveratrol; Effect on adipocytes survival compared with derivatives TriacetylR and IM05 (3T3-L1 mature adipocytes; 50 ppm): more effective in reducing adipocytes survival than its derivatives; Cell viability rate compared with resveratrol at the same concentration (3T3-L1 mature adipocytes; 60 ppm): no significant difference in cell viability rate
3 | CC(=O)Oc1ccc(/C=C/c2cc(OC(C)=O)cc(OC(C)=O)c2)cc1 [TriacetyIR, [4-[(E)-2-(3,5-diacetyloxyphenyl)ethenyl]phenyl] acetate] | significantly decreased | 68.9% | 73.2% | 64% | 67.2% | 71.2% |  | 
4 | Oc1ccc(C=Cc2cc(O)cc(O)c2)cc1 [Resveratrol] |  |  |  |  |  |  | significantly lower than 0.2% DMSO Vehicle group | viability at 24 h, 20 ppm ([1]; 3T3-L1 mature adipocytes (differentiated from preadipocytes), 3T3-L1 mature adipocytes, drug 20 ppm, 0.2% DMSO, 24 hours, relative to Control, mean ± spread of 3 replicates, read-out: Average viability (%)): 69.6 ± 1.36%; viability at 24 h, 40 ppm ([1]; 3T3-L1 mature adipocytes (differentiated from preadipocytes), 3T3-L1 mature adipocytes, drug 40 ppm, 0.2% DMSO, 24 hours, relative to Control, mean ± spread of 3 replicates, read-out: Average viability (%)): 43.4 ± 1.47%; viability at 24 h, 60 ppm ([1]; 3T3-L1 mature adipocytes (differentiated from preadipocytes), 3T3-L1 mature adipocytes, drug 60 ppm, 0.2% DMSO, 24 hours, relative to Control, mean ± spread of 3 replicates, read-out: Average viability (%)): 14.1 ± 0.6%
